Experimental data reported in patent US20260345605A1, “THERAPEUTIC AGENTS FOR HEART FAILURE” (Ottawa Hospital Research Institute, priority 2023, published 2026).

Assays:
aurora kinase B = test: pAurkB S727 immunofluorescence and remodeling in NRVM; assay type: cell-based, neonatal rat; settings: PE 100 μM
Procedure: Immunofluorescence was performed to validate and assess the effect of aurora B kinase inhibitor on cardiomyocyte remodeling. NRVMs were plated at a density of 2.5×10^4 cells onto 25 mm diameter collagen coated coverslip. Primary cardiomyocytes were incubated with control serum-free medium (Ctrl, SF medium), hCT1 (0.5 nM), PE (100 μM), AZD1152-HQPA (1.5 μM) and assessed for aurora kinase B activation using pAurkB s727 antibody staining. The cells were treated with a combination of PE and AZD1152 HQPA where the cells were stimulated with the drug for 4 hours following the PE treatment for 24 hours.
Post treatment, the cells were washed, fixed, and were subjected to sequential staining of primary antibodies a Actinin and phospho-AurkB (S727). The images were acquired using the Zeiss AxioVision SE64 Imaging software and analyzed using the ImageJ2 software. Immunofluorescence was used to detect α-actinin, pAurkb S727, and nuclei were stained with DAPI.

[1] = system: phenylephrine induced left ventricular hypertrophy; settings: LV; HF markers; cited from earlier work
CDK4 = test: pCDK4 Thr172 immunofluorescence and remodeling in primary cardiomyocytes; assay type: cell-based
From the text: (§1) Post treatment, the cells were washed, fixed, and were subjected to sequential staining of primary antibodies a Actinin and phospho-CDK4 (Thr172). The images were acquired using the Zeiss AxioVision SE64 Imaging software and analyzed using the ImageJ2 software.
Immunofluorescence was used to detect α-actinin, pCDK4 Thr172, and nuclei were stained with DAPI. […] The nuclear fluorescent intensity of pCDK4 Thr172 using the ImageJ software. The data are represented as Mean±Standard deviation.

[2] = system: phospho-Histone 3 (Ser10); test: phospho-Histone 3 (pH3 Ser10) staining in NRVM; assay type: cell-based, neonatal rat; settings: PE
Procedure: A one-way ANOVA test performed to assess statistical significance across treatment groups.
The effect of AZD1152-HQPA on cardiac remodeling was further validated using the phospho-Histone 3 (pH3 Ser10) staining which is the downstream target of aurora kinase B. The NRVMs were plated at a density of 2.5×10^4 cells onto 25 mm diameter collagen coated coverslip. The cells were treated with controls (hCT1, PE), AZD1152-HQPA followed by a combination of PE and AZD1152-HQPA.
as §1, with “phospho-Histone 3 (Ser10).” for “phospho-CDK4 (Thr172).”, “ImageJ” for “ImageJ2”, “software. […] The data are represented as Mean±Standard deviation.” for “software.”

[3] = system: cardiac angiogenesis (CD31); test: Cardiac angiogenesis by CD31 staining in PE rat model; assay type: in vivo, Sprague Dawley rat
Procedure: Animal Model Preparation. Sprague Dawley rats were continuously treated with phenylephrine (PE), an α-adrenergic agonist that causes vasoconstriction leading to increased afterload and decreased ventricular function, to create a left-ventricular dysfunction animal model. […] For chronic infusion of phenylephrine, Alzet® mini-osmotic pumps (2002, Durect® Corp) containing Phenylephrine (PE) (10 mg/kg/day) or PBS vehicle were surgically implanted dorsally and subcutaneously in each Sprague Dawley rat under isoflurane anaesthesia. The animals were allowed to develop left ventricular hypertrophy for 2 weeks following the osmotic pump implantation.
Echocardiography was performed, the animals were sacrificed at 3 weeks endpoint and the blood and tissue were harvested for further analysis.
The rat model was prepared as described in Example 12, and the cardiac tissue harvested at the end of the 3 weeks was prepared for CD31 Staining, which is a histological technique used to visualize and assess angiogenesis in cardiac tissue.

cardiac fibrosis = settings: phenylephrine, reported; cited from earlier work
collagen type I = test: Collagen type I immunofluorescence in NRVM; assay type: cell-based, neonatal rat
Procedure: Primary NRVMs were seeded at a density of 2.7×10^5 cells directly onto 25 mm diameter collagen-coated glass coverslips. The treatments with control (PE) and drugs LY283519 were performed for 24 hours. […] Post treatment, the cells were washed three times in PBS followed by fixation in 4% paraformaldehyde for 30 min. Cells were then permeabilized in blocking buffer (1% bovine serum albumin (BSA), 2% normal goat serum, 0.4% Tx-100 in PBS) for 15 min and were incubated for 2 h at room temperature with primary a Actinin and collagen type I antibody, followed by three successive washes in PBS in a humidified chamber. Cells were then blocked again in blocking buffer for 15 min followed by a 1-hour incubation in fluorescently conjugated secondary antibody. Cells were then washed again in PBS and the nuclei were counterstained with 4′,6-diamidino-2-phenylindole (DAPI). The cells were mounted onto microscope slides with Dako Cytomation fluorescent mounting medium (Dako). Digital fluorescent images were obtained using the Zeiss AxioVision SE64 Imaging software and analyzed using ImageJ2 software.

Cyclin D1/CDK4 = settings: role: inhibitor; cited from earlier work
cardiomyocytes = test: Overall observation on remodeling of treated cardiomyocytes; assay type: cell-based
CDK6 = settings: role: inhibitor; cited from earlier work
Rb phosphorylation = settings: cited from earlier work
[4] = single treatment, 24 hours, vs control

SMILES	AurkB activation (aurora kinase B)	cardiomyocyte remodeling (aurora kinase B)	effect of phenylephrine on left ventricle (background) [1]	CDK4 activation (CDK4; PE 100 μM)	cardiomyocyte remodeling (CDK4; PE 100 μM)	pH3 Ser10 staining [2]	CD31 staining ([3]; PE, compared to control sham animals)	pathways involved in cardiac fibrosis (background) (cardiac fibrosis)	expression of collagen type I (collagen type I; [4])	inhibition of Cyclin D1/CDK4 (Cyclin D1/CDK4)	cardiomyocyte remodeling (cardiomyocytes)	CDK4 activation (CDK4; LY2835219 1.5 μM)	pathological effect of PE (CDK4; drug for 4 hr following PE treatment for 24 hours)	inhibition of CDK6 (CDK6)	cardiac angiogenesis ([3]; LY2835219 in PE treated animals)	cardiac angiogenesis ([3]; LY2835219 treatment)	Rb phosphorylation (Rb phosphorylation)	cell cycle arrest (Rb phosphorylation)	expression of collagen type I (collagen type I; PE for 24 hrs followed by LY2835219 for 24 hrs)
CNC[C@H](O)c1cccc(O)c1 [PE, phenylephrine]	AurkB activation	concentric hypertrophic remodeling was observed	myocardial hypertrophy of the LV, increased LV weight, systolic dysfunction, and increased expression of HF markers atrial natriuretic peptide and brain natriuretic peptide	CDK4 activation	concentric hypertrophic remodeling was observed	Increased pH3 Ser10 staining	significantly decreased CD31 staining	stimulate pathways involved in cardiac fibrosis	increased expression of type I collagen compared to control	–	–	–	–	–	–	–	–	–	–
CCN1CCN(Cc2ccc(Nc3ncc(F)c(-c4cc(F)c5nc(C)n(C(C)C)c5c4)n3)nc2)CC1 [LY2835219]	–	–	–	–	–	–	–	–	decrease in expression of collagen type I	low nanomolar potency	adaptive and compensatory remodeling that resembles a physiologic growth response, adding sarcomeres in series	inhibited CDK4 activation	able to reverse the pathological effect of PE	low nanomolar potency	improve angiogenesis	increased angiogenesis	inhibits Rb phosphorylation	G1 arrest	decreased expression of collagen type I
